Key:
T Cells = experiment: Immunosuppressive activity assay: T cells inhibitory activity; format: cell-based; settings: T-cell; Table 10
[1] = MTT cytotoxicity on mouse spleen lymphocytes; format: cell-based, BALB/c mice; settings: BALB/c, MTT assay
Procedure: 3-(4,5-dimethylthylthiazol-2-yl)-2,5-diphenyl tetrazolium bromide (MTT) assay was adopted to measure the effect of the in vitro administered compound on the activity of the spleen lymphocytes of normal mice, and evaluate the cytotoxicity of the compound.
They were dissolved in DMSO before testing to prepare a stock solution, which was diluted to a desired concentration with the medium when use.
100 μl cell suspension of mouse spleen lymphocytes was inoculated on a 96-well plate (4×10^5 per well), and the compound at different concentrations was added therein, including additional solvent control or medium background control, wherein, the total volume of each well was 200 μl. After the 96-well plate was placed in an incubator at 37° C. with 5% CO2 for 48 hours, 20 μl (5 mg/ml) of MTT solution was added 6 to 7 hours before the end of incubation. Then after the incubation was completed, 100 μl of supernatant was removed for each well, and 100 μl of […] was added therein. After the 96-well plate was placed in the incubator for 6 to 7 hours, OD values were determined on an ELISA Reader at the wavelength of 570 nm.

[2] = test system: allogeneic antigen-induced mouse spleen lymphocytes; experiment: Mixed lymphocyte culture, 3H-TdR incorporation; format: cell-based, C57BL/6 and BALB/C mice; settings: for inhibition at 0.0001342 µM / inhibition at 0.0003355 µM / inhibition at 0.0008389 µM / inhibition at 0.0020972 µM / inhibition at 0.0052429 µM / inhibition at 0.013107 µM / inhibition at 0.032768 µM / inhibition at 0.0819 µM / inhibition at 0.2048 µM / inhibition at 0.512 µM / inhibition at 1.28 µM / inhibition at 3.2 µM / inhibition at 8 µM / inhibition at 20 µM: Mus musculus, Lymphocyte
Procedure: Preparation of Stimulator Cells: a Cell Suspension of Balb/C Mouse Spleen Lymphocytes was irradiated by cesium 137 at 3000 Rads using a Gamma radiometer (Gammacell 3000) to make the cells lose their proliferation ability. After washed by RPMI-1640 for 2 times, the cell concentration was adjusted to 5×10^6/ml.
Preparation of responder cells: C57BL/6 mouse spleen lymphocytes were used as the responder cells, and the cell concentration was 5×10^6/ml.
Mixed lymphocyte culture: 50 μl cell suspension of C57BL/6 mouse spleen lymphocytes was inoculated on a 96-well plate, and 50 μl cell suspension of BALB/C mouse spleen lymphocytes treated by cesium 137 was added therein, followed by addition of 50 μl compound at different concentrations. The total volume for each well was 200 μl. If the total volume was less than 200 μl, it was supplemented with RMPI-1640 medium. The tests were divided into 3 groups, i.e., BALB/C mouse group, C57BL/6 mouse group and BALB/C and C57BL/6 mice mixed culture group. The test was carried out in triplicate wells for each concentration, and included control wells without the compound, with only the stimulator cells and with only the responder cells. The 96-well plate was incubated in an incubator at 37° C. with 5% CO2 for 3 to 5 days. 8 hours before the end of incubation, 25 μl of ^3H-thymidine (10 μCi/ml) was added in each well. After the incubation was completed, cells were harvested by a cell harvester on a glass fiber film. After addition of a scintillation fluid, the amount of ^3H-TdR incorporated in cell DNA was determined by a Beta cell counter (MicroBeta Trilux, PerkinElmer), and the cell proliferation was represented as a cpm value.

[3] = test system: human osteosarcoma U2SO xenograft; experiment: U2SO xenograft on nude mice; settings: 1-5/3 w; for TV (mm^3) d0: baseline
FKBP-12 protein = biological target: T1, FKBP-12 protein (Homo sapiens, UniProt P62942); experiment: SPR (surface plasma resonance) binding with FKBP-12
T1 construct: purchased sigma Co
Procedure: (1) FKBP-12 protein was purchased from sigma Co.
(2) HBS-EP buffer solution (10 mM Hepes, 150 mM NaCl, 3.4 mM EDTA, 0.005% (v/v) surfactant P20, pH 7.4)
(3) Activating reagents EDC and NHS, and blocking reagents Ethanolamine, etc., were purchased from BIACORE AB Co. (Uppsala, Sweden).
(4) BIAcore 3000 and CM5 chip were purchased from BIACORE AB Co. (Uppsala, Sweden).
(2) […] was coupled to the FC2 channel on CM5 chip by using the Wizard for amino-coupling in Biacore 3000 controlling soft. 3.3 g/L of FKBP-12 protein was diluted with 10 mM NaAC (pH 4.6) to 66 μg/ml. The surface of the chip was washed by injecting a mixture of 0.1M1-(3-dimethylaminopropyl)-3-ethylcarbodiimide hydrochloride (EDCI) and 0.1M N-hydroxysuccinimide (NHS) (1:1) at a flow rate of 20 μL/min for 7 min. After that, the protein solution was injected, and then a 1M cholamine (pH 8.5) solution was fed for 7 min to block the activated surface of the chip. Preliminary screening and pharmacokinetic tests on the compounds
The binding abilities of small molecular compounds with FKBP-12 protein were evaluated by SPR (surface plasma resonance). The stock solution of the compound was 10 mM, and was diluted by HBS-EP buffer solution at given ratios. Pharmacokinetic tests were carried out by the Wizard for kinetic analysis in Biacore 3000 controlling soft. The resulted data were fitted by 1:1 Langmuir binding model or stability model in Biacore 3000 analytical soft to obtain the exact kinetic and thermodynamic constants.

T1 sequence (P62942 whole entry, species assumed): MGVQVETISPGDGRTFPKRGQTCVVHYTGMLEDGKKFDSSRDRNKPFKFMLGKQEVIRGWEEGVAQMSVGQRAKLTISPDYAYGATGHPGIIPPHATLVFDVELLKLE

Structure (SMILES): CO[C@H]1C[C@@H]2CC[C@@H](C)[C@@](O)(O2)C(=O)C(=O)N2CCCC[C@H]2C(=O)O[C@H]([C@H](C)C[C@@H]2CC[C@@H](O)[C@H](OC)C2)CC(=O)[C@H](C)/C=C(\C)[C@@H](O)[C@@H](OC)C(=O)[C@H](C)C[C@H](C)/C=C/C=C/C=C/1C [Rapamycin]
- IC50 (T Cells): 4.2 µM
- CC50 at 48 h [1]: 45.5 µM
- CPM Mean value ([2]; 0.1342 nM): 4788
- CPM Mean value ([2]; 0.3355 nM): 3157
- CPM Mean value ([2]; 0.8389 nM): 1955
- CPM Mean value ([2]; 2.0972 nM): 1638
- CPM Mean value ([2]; 32.768 nM): 956
- CPM Mean value ([2]; 81.9 nM): 1012
- CPM Mean value ([2]; 204.8 nM): 848
- CPM Mean value ([2]; 512 nM): 1068
- CPM Mean value ([2]; 1280 nM): 967
- CPM Mean value ([2]; 3200 nM): 840
- CPM Mean value ([2]; 8000 nM): 780
- CPM Mean value ([2]; 20000 nM): 362
- inhibition at 0.0001342 µM ([2]; 0.1342 nM): 35%
- inhibition at 0.0003355 µM ([2]; 0.3355 nM): 57%
- inhibition at 0.0008389 µM ([2]; 0.8389 nM): 73%
- inhibition at 0.0020972 µM ([2]; 2.0972 nM): 78%
- inhibition at 0.0052429 µM ([2]; 5.2429 nM): 83%
- inhibition at 0.013107 µM ([2]; 13.107 nM): 83%
- inhibition at 0.032768 µM ([2]; 32.768 nM): 87%
- inhibition at 0.0819 µM ([2]; 81.9 nM): 86%
- inhibition at 0.2048 µM ([2]; 204.8 nM): 88%
- inhibition at 0.512 µM ([2]; 512 nM): 85%
- inhibition at 1.28 µM ([2]; 1280 nM): 87%
- inhibition at 3.2 µM ([2]; 3200 nM): 89%
- inhibition at 8 µM ([2]; 8000 nM): 89%
- inhibition at 20 µM ([2]; 20000 nM): 95%
- Body Weight (g) end ([3]; Table 5, oral 2.5 mg/kg): 18.5 g
- Body Weight (g) start ([3]; Table 5, oral 2.5 mg/kg): 19.7 g
- RTV ([3]; Table 5, oral 2.5 mg/kg): 15 ± 5.1
- T/C (%) ([3]; Table 5, oral 2.5 mg/kg): 60.0%
- TV (mm^3) d21 ([3]; Table 5, oral 2.5 mg/kg): 1230 ± 344 mm^3
- TV (mm^3) d0 ([3]; Table 5, oral 2.5 mg/kg): 85 ± 24 mm^3
- Body Weight (g) end ([3]; Table 5, oral 5 mg/kg): 17.5 g
- Body Weight (g) start ([3]; Table 5, oral 5 mg/kg): 19.5 g
- RTV ([3]; Table 5, oral 5 mg/kg): 15 ± 3.4
- T/C (%) ([3]; Table 5, oral 5 mg/kg): 59.0%
- TV (mm^3) d0 ([3]; Table 5, oral 5 mg/kg): 86 ± 20 mm^3

Structure (SMILES): CO[C@H]1C[C@@H]2CC[C@@H](C)[C@@](O)(O2)C(=O)C(=O)N2CCCC[C@H]2C(=O)O[C@H]([C@H](C)C[C@@H]2CC[C@@H](OC(=O)OCC(O)CO)[C@H](OC)C2)CC(=O)[C@H](C)/C=C(\C)[C@@H](O)[C@@H](OC)C(=O)[C@H](C)C[C@H](C)/C=C/C=C/C=C/1C (stereo partly drawn) [Y31]
- binding with FKBP12 (FKBP-12 protein): concentration-dependently bind
- Kd (FKBP-12 protein; FKBP12): 0.0001 µM
- koff (FKBP-12 protein; FKBP12): 0.11 × 10^−3 S^−1
- kon (FKBP-12 protein; FKBP12): 1.05 × 10^6 M^−1S^−1
- R^U (Response Unit) compared with rapamycin (FKBP-12 protein; at the same concentration): higher
- concentration to reach the saturation state for the binding with FKBP12 (FKBP-12 protein; compared with rapamycin): lower than that for rapamycin
- IC50 (T Cells): 0.05 µM
- CC50 at 48 h [1]: 36.9 µM
- CPM Mean value ([2]; 0.1342 nM): 1338
- CPM Mean value ([2]; 0.3355 nM): 1296
- CPM Mean value ([2]; 0.8389 nM): 1202
- CPM Mean value ([2]; 2.0972 nM): 1137
- CPM Mean value ([2]; 5.2429 nM): 1131
- CPM Mean value ([2]; 13.107 nM): 1137
- CPM Mean value ([2]; 32.768 nM): 1189
- CPM Mean value ([2]; 81.9 nM): 1314
- CPM Mean value ([2]; 204.8 nM): 1090
- CPM Mean value ([2]; 512 nM): 1436
- CPM Mean value ([2]; 1280 nM): 1209
- CPM Mean value ([2]; 3200 nM): 1132
- CPM Mean value ([2]; 8000 nM): 1190
- CPM Mean value ([2]; 20000 nM): 815
- inhibition at 0.0001342 µM ([2]; 0.1342 nM): 82%
- inhibition at 0.0003355 µM ([2]; 0.3355 nM): 82%
- inhibition at 0.0008389 µM ([2]; 0.8389 nM): 84%
- inhibition at 0.0020972 µM ([2]; 2.0972 nM): 85%
- inhibition at 0.0052429 µM ([2]; 5.2429 nM): 85%
- inhibition at 0.013107 µM ([2]; 13.107 nM): 85%
- inhibition at 0.032768 µM ([2]; 32.768 nM): 84%
- inhibition at 0.0819 µM ([2]; 81.9 nM): 82%
- inhibition at 0.2048 µM ([2]; 204.8 nM): 85%
- inhibition at 0.512 µM ([2]; 512 nM): 80%
- inhibition at 1.28 µM ([2]; 1280 nM): 84%
- inhibition at 3.2 µM ([2]; 3200 nM): 85%
- inhibition at 8 µM ([2]; 8000 nM): 84%
- inhibition at 20 µM ([2]; 20000 nM): 89%
- Body Weight (g) end ([3]; Table 5, oral 2.5 mg/kg): 20.2 g
- Body Weight (g) start ([3]; Table 5, oral 2.5 mg/kg): 18.5 g
- RTV ([3]; Table 5, oral 2.5 mg/kg): 12 ± 6.7
- T/C (%) ([3]; Table 5, oral 2.5 mg/kg): 49.0%
- TV (mm^3) d21 ([3]; Table 5, oral 2.5 mg/kg): 975 ± 235 mm^3
- TV (mm^3) d0 ([3]; Table 5, oral 2.5 mg/kg): 90 ± 27 mm^3
- Body Weight (g) end ([3]; Table 5, oral 5 mg/kg): 19.5 g
- Body Weight (g) start ([3]; Table 5, oral 5 mg/kg): 17.7 g
- RTV ([3]; Table 5, oral 5 mg/kg): 11 ± 7.2
- T/C (%) ([3]; Table 5, oral 5 mg/kg): 44.0%
- TV (mm^3) d21 ([3]; Table 5, oral 5 mg/kg): 967 ± 234 mm^3
- TV (mm^3) d0 ([3]; Table 5, oral 5 mg/kg): 89 ± 19 mm^3

Reference: US8455510B2
